*1 amine or outer side, *2 acyl side, *3 side chain or, on linkers, in order; H or OH if unused. Where a SMILES comes first, the peptide text is derived from it. Bridges are numbered along the chain shown (N, C = ends). [ ]: non-standard residue; d: D form. The star is where a group is joined. ξ: configuration not given here. Phe(4-COOH) = N[C@@H](Cc1ccc(C(=O)O)cc1)C(=O)O; Bip = N[C@@H](Cc1ccc(-c2ccccc2)cc1)C(=O)O; Phe(3-Me) = Cc1cccc(C[C@H](N)C(=O)O)c1; γGlu = O=C(O)[C@H](CCC(=O)[*:2])N[*:1]; aIle = CC[C@@H](C)[C@H](N)C(=O)O; hArg = N=C(N)NCCCC[C@H](N)C(=O)O; 4Pal = N[C@@H](Cc1ccncc1)C(=O)O; Cha = N[C@@H](CC1CCCCC1)C(=O)O; Ile(3ξ) = CCC(C)[C@H](N)C(=O)O; Thr(3ξ) = CC(O)[C@H](N)C(=O)O; 12Ado = NCCCCCCCCCCCC(=O)O; dOrn = NCCC[C@@H](N)C(=O)O; Carboxymethyl = O=C(O)C*; NMeA = CN[C@@H](C)C(=O)O; Orn = NCCC[C@H](N)C(=O)O; dDap = NC[C@@H](N)C(=O)O; Aun = NCCCCCCCCCCC(=O)O; Dab = NCC[C@H](N)C(=O)O; AEEA = NCCOCCOCC(=O)O
target: T1, PD-1/PD-L1 interaction (PE-labeled human PD-L1-Ig binding to Jurkat cell line over-expressing human PD-1) (Homo sapiens, UniProt Q15116); assay: Jurkat-PD-1 Cell Binding High-Content Screening Assay (CBA); details: Jurkat-hPD-1 cells, PE-labeled PD-L1-Ig 20 nM final; read-out: Jurkat HPD1 PDL1 IC50
T1 construct: expressed in transfected cells; host or cells: Jurkat
T1 sequence (Q15116 25-288): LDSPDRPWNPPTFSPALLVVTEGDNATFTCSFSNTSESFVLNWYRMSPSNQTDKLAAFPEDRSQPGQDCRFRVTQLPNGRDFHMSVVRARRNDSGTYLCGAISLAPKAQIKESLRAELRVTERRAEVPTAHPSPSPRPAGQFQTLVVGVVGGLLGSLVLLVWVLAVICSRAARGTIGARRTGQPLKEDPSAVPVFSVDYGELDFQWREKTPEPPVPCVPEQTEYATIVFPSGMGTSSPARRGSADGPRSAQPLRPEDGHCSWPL
In short: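 Compound is added first to the PD-1-expressing Jurkat cells and held 2 h at 37 °C in serum-containing DMEM. The fluorescent PD-L1 fusion follows at 20 nM final for 1 h. Fixed, Hoechst-stained cells are then imaged for bound label.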

Row | IC50 [µM] | Compound
1 | 0.0296 | CCC(C)[C@@H]1NC(=O)[C@H](Cc2ccc(-c3ccccc3)cc2)NC(=O)[C@H](CC(C)C)NC(=O)[C@H](Cc2c[nH]c3ccccc23)NC(=O)[C@H](CC(=O)O)NC(=O)[C@H](Cc2ccc(OCC(=O)O)cc2)NC(=O)[C@H](Cc2ccc(OCC(=O)O)cc2)NC(=O)CSC[C@@H](C(=O)N[C@@H](CCN)C(=O)NCCOCCOCC(=O)NCCCCCCCCCCC(=O)O)NC(=O)[C@H](CO)NC(=O)[C@H](C(C)C)NC(=O)[C@H](CC(C)C)NC(=O)[C@H](CC(N)=O)NC(=O)[C@@H](CC(C)C)NC(=O)[C@H](C)N(C)C1=O (stereo partly drawn) [Example 2038] ({CH2CO}-Y(Carboxymethyl)Y(Carboxymethyl)DWL[Bip][Ile(3ξ)][NMeA][dL]NLVSC[Dab][AEEA][Aun]-OH; thioether N-14)
2 | 0.879 | CC(C)C[C@@H]1NC(=O)[C@H](Cc2c[nH]c3ccccc23)NC(=O)[C@H](CC(=O)O)NC(=O)[C@H](Cc2ccc(OCC(=O)O)cc2)NC(=O)[C@H](Cc2ccc(OCC(=O)O)cc2)NC(=O)CSC[C@@H](C(=O)N[C@@H](CCN)C(=O)NCCOCCOCC(=O)NCCCCCCCCCCC(=O)O)NC(=O)[C@H](CO)NC(=O)[C@H](C(C)C)NC(=O)[C@H](CC(C)C)NC(=O)[C@H](CCN)NC(=O)[C@@H](CC(C)C)NC(=O)[C@H](C)N(C)C(=O)[C@H](C(C)C)NC(=O)[C@H](Cc2ccc(-c3ccccc3)cc2)NC1=O [Example 2039] ({CH2CO}-Y(Carboxymethyl)Y(Carboxymethyl)DWL[Bip]V[NMeA][dL][Dab]LVSC[Dab][AEEA][Aun]-OH; thioether N-14)
3 | 0.0087 | CCC(C)[C@@H]1NC(=O)[C@H](Cc2ccc(-c3ccccc3)cc2)NC(=O)[C@H](CC(C)C)NC(=O)[C@H](Cc2c[nH]c3ccccc23)NC(=O)[C@H](CC(=O)O)NC(=O)[C@H](Cc2ccc(OCC(=O)O)cc2)NC(=O)[C@H](Cc2ccncc2)NC(=O)CSC[C@@H](C(=O)N[C@@H](CCCN)C(=O)NCCOCCOCC(=O)NCCCCCCCCCCC(=O)O)NC(=O)[C@H](C(C)O)NC(=O)[C@H](C(C)C)NC(=O)[C@H](CC2CCCCC2)NC(=O)[C@H](CCN)NC(=O)[C@@H](CC(C)C)NC(=O)[C@H](C)N(C)C1=O (stereo partly drawn) [Example 2040] ({CH2CO}-[4Pal]Y(Carboxymethyl)DWL[Bip][Ile(3ξ)][NMeA][dL][Dab][Cha]V[Thr(3ξ)]C[Orn][AEEA][Aun]-OH; thioether N-14)
4 | 0.0174 | CCC(C)[C@@H]1NC(=O)[C@H](Cc2ccc(-c3ccccc3)cc2)NC(=O)[C@H](CC(C)C)NC(=O)[C@H](Cc2cccc(C)c2)NC(=O)[C@H](CC(=O)O)NC(=O)[C@H](Cc2ccc(OCC(=O)O)cc2)NC(=O)[C@H](Cc2ccc(OCC(=O)O)cc2)NC(=O)CSC[C@@H](C(=O)NCCOCCOCC(=O)N[C@@H](CCC(=O)NCCCCCCCCCCC(=O)O)C(=O)O)NC(=O)[C@H](CO)NC(=O)[C@H](C(C)C)NC(=O)[C@H](CC(C)C)NC(=O)[C@H](CCN)NC(=O)[C@@H](CC(C)C)NC(=O)[C@H](C)N(C)C1=O (stereo partly drawn) [Example 2043] ({CH2CO}-Y(Carboxymethyl)Y(Carboxymethyl)D[Phe(3-Me)]L[Bip][Ile(3ξ)][NMeA][dL][Dab]LVSC[AEEA][γGlu][Aun]-OH; thioether N-14)
5 | 0.067 | CCC(C)[C@@H]1NC(=O)[C@H](Cc2ccc(-c3ccccc3)cc2)NC(=O)[C@H](CC(C)C)NC(=O)[C@H](Cc2c[nH]c3ccccc23)NC(=O)[C@H](CC(=O)O)NC(=O)[C@H](Cc2ccc(OCC(=O)O)cc2)NC(=O)[C@H](CCCCNC(=N)N)NC(=O)CSC[C@@H](C(=O)NCCOCCOCC(=O)N[C@@H](CCC(=O)NCCCCCCCCCCC(=O)O)C(=O)O)NC(=O)[C@H](CO)NC(=O)[C@H](C(C)C)NC(=O)[C@H](CC(C)C)NC(=O)[C@H](CCN)NC(=O)[C@@H](CC(C)C)NC(=O)[C@H](C)N(C)C1=O (stereo partly drawn) [Example 2044] ({CH2CO}-[hArg]Y(Carboxymethyl)DWL[Bip][Ile(3ξ)][NMeA][dL][Dab]LVSC[AEEA][γGlu][Aun]-OH; thioether N-14)
6 | 0.0269 | CCC(C)[C@@H]1NC(=O)[C@H](Cc2ccc(-c3ccccc3)cc2)NC(=O)[C@H](CC(C)C)NC(=O)[C@H](Cc2c[nH]c3ccccc23)NC(=O)[C@H](CC(=O)O)NC(=O)[C@H](Cc2ccc(OCC(=O)O)cc2)NC(=O)[C@H](Cc2ccncc2)NC(=O)CSC[C@@H](C(=O)NCCOCCOCC(=O)N[C@@H](CCC(=O)NCCCCCCCCCCC(=O)O)C(=O)O)NC(=O)[C@H](CO)NC(=O)[C@H](C(C)C)NC(=O)[C@H](CC2CCCCC2)NC(=O)[C@H](CCN)NC(=O)[C@@H](CC(C)C)NC(=O)[C@H](C)N(C)C1=O (stereo partly drawn) [Example 2045] ({CH2CO}-[4Pal]Y(Carboxymethyl)DWL[Bip][Ile(3ξ)][NMeA][dL][Dab][Cha]VSC[AEEA][γGlu][Aun]-OH; thioether N-14)
7 | 0.0358 | CCC(C)[C@@H]1NC(=O)[C@H](Cc2ccc(-c3ccccc3)cc2)NC(=O)[C@H](C(C)C)NC(=O)[C@H](Cc2c[nH]c3ccccc23)NC(=O)[C@H](CC(=O)O)NC(=O)[C@H](Cc2ccc(OCC(=O)O)cc2)NC(=O)[C@H](C(C)O)NC(=O)CSC[C@@H](C(=O)N[C@@H](CCCN)C(=O)N[C@@H](CCC(=O)NCCCCCCCCCCCC(=O)O)C(=O)O)NC(=O)[C@H](CO)NC(=O)[C@H](C(C)C)NC(=O)[C@H](CC2CCCCC2)NC(=O)[C@H](CCN)NC(=O)[C@@H](CC(C)C)NC(=O)[C@H](C)N(C)C1=O (stereo partly drawn) [Example 2047] ({CH2CO}-[Thr(3ξ)]Y(Carboxymethyl)DWV[Bip][Ile(3ξ)][NMeA][dL][Dab][Cha]VSC[Orn][γGlu][12Ado]-OH; thioether N-14)

The next lines start with the compound.

Row | Compound | IC50 [µM]
8 | CCC(C)[C@@H]1NC(=O)[C@H](Cc2ccc(-c3ccccc3)cc2)NC(=O)[C@H](C(C)C)NC(=O)[C@H](Cc2c[nH]c3ccccc23)NC(=O)[C@H](CC(=O)O)NC(=O)[C@H](Cc2ccc(OCC(=O)O)cc2)NC(=O)[C@H](Cc2c[nH]cn2)NC(=O)CSC[C@@H](C(=O)NCCOCCOCC(=O)N[C@@H](CCC(=O)NCCOCCOCC(=O)N[C@@H](CCCCN)C(=O)NCCCCCCCCCCC(=O)O)C(=O)O)NC(=O)[C@H](CO)NC(=O)[C@H](C(C)C)NC(=O)[C@H](CC2CCCCC2)NC(=O)[C@H](CCN)NC(=O)[C@@H](CC(C)C)NC(=O)[C@H](C)N(C)C1=O (stereo partly drawn) [Example 2032] ({CH2CO}-HY(Carboxymethyl)DWV[Bip][Ile(3ξ)][NMeA][dL][Dab][Cha]VSC[AEEA][γGlu][AEEA]K[Aun]-OH; thioether N-14) | 0.0104
9 | CCC(C)[C@@H]1NC(=O)[C@H](Cc2ccc(-c3ccccc3)cc2)NC(=O)[C@H](C(C)C)NC(=O)[C@H](Cc2c[nH]c3ccccc23)NC(=O)[C@H](CC(=O)O)NC(=O)[C@H](Cc2ccc(OCC(=O)O)cc2)NC(=O)[C@H](Cc2ccncc2)NC(=O)CSC[C@@H](C(=O)NCCOCCOCC(=O)N[C@@H](CCCCN)C(=O)NCCCCCCCCCCC(=O)O)NC(=O)[C@H](CO)NC(=O)[C@H](C(C)C)NC(=O)[C@H](CC2CCCCC2)NC(=O)[C@H](CCN)NC(=O)[C@@H](CC(C)C)NC(=O)[C@H](C)N(C)C1=O (stereo partly drawn) [Example 2033] ({CH2CO}-[4Pal]Y(Carboxymethyl)DWV[Bip][Ile(3ξ)][NMeA][dL][Dab][Cha]VSC[AEEA]K[Aun]-OH; thioether N-14) | 0.0192
10 | CC[C@@H](C)[C@@H]1NC(=O)[C@H](Cc2ccc(-c3ccccc3)cc2)NC(=O)[C@H](CC(C)C)NC(=O)[C@H](Cc2c[nH]c3ccccc23)NC(=O)[C@H](CC(=O)O)NC(=O)[C@H](Cc2ccc(C(=O)O)cc2)NC(=O)[C@H](Cc2ccc(OCC(=O)O)cc2)NC(=O)CSC[C@@H](C(=O)NCCOCCOCC(=O)N[C@H](CCCN)C(=O)NCCCCCCCCCCC(=O)O)NC(=O)[C@H](CO)NC(=O)[C@H](C(C)C)NC(=O)[C@H](CC2CCCCC2)NC(=O)[C@H](CCN)NC(=O)[C@@H](CC(C)C)NC(=O)[C@H](C)N(C)C1=O [Example 2034] ({CH2CO}-Y(Carboxymethyl)[Phe(4-COOH)]DWL[Bip][aIle][NMeA][dL][Dab][Cha]VSC[AEEA][dOrn][Aun]-OH; thioether N-14) | 0.0169
11 | CC(C)C[C@@H]1NC(=O)[C@H](Cc2c[nH]c3ccccc23)NC(=O)[C@H](CC(=O)O)NC(=O)[C@H](Cc2ccc(O)cc2)NC(=O)[C@H](Cc2ccccc2)NC(=O)CSC[C@@H](C(=O)N[C@@H](C)C(=O)N[C@H](CCCCN)C(=O)NCCCCCCCCCCC(=O)O)NC(=O)[C@H](CO)NC(=O)[C@H](C(C)C)NC(=O)[C@H](CC(C)C)NC(=O)[C@H](CCN)NC(=O)[C@@H](CC(C)C)NC(=O)[C@H](C)N(C)C(=O)[C@H](C(C)C)NC(=O)[C@H](Cc2ccc(-c3ccccc3)cc2)NC1=O [Example 2035] ({CH2CO}-FYDWL[Bip]V[NMeA][dL][Dab]LVSCA[dK][Aun]-OH; thioether N-14) | 0.0219
12 | CC[C@@H](C)[C@@H]1NC(=O)[C@H](Cc2ccc(-c3ccccc3)cc2)NC(=O)[C@H](C(C)C)NC(=O)[C@H](Cc2c[nH]c3ccccc23)NC(=O)[C@H](CC(=O)O)NC(=O)[C@H](Cc2ccc(O)cc2)NC(=O)[C@H](Cc2ccncc2)NC(=O)CSC[C@@H](C(=O)N[C@@H](CCN)C(=O)NCCCCCCCCCCC(=O)O)NC(=O)[C@H](C(C)O)NC(=O)[C@H](C(C)C)NC(=O)[C@H](CC2CCCCC2)NC(=O)[C@H](CCN)NC(=O)[C@@H](CC(C)C)NC(=O)[C@H](C)N(C)C1=O (stereo partly drawn) [Example 2036] ({CH2CO}-[4Pal]YDWV[Bip][aIle][NMeA][dL][Dab][Cha]V[Thr(3ξ)]C[Dab][Aun]-OH; thioether N-14) | 0.0439
13 | CC(C)C[C@@H]1NC(=O)[C@H](Cc2c[nH]c3ccccc23)NC(=O)[C@H](CC(=O)O)NC(=O)[C@H](Cc2ccc(OCC(=O)O)cc2)NC(=O)[C@H](Cc2ccccc2)NC(=O)CSC[C@@H](C(=O)N[C@H](CN)C(=O)NCCOCCOCC(=O)NCCCCCCCCCCC(=O)O)NC(=O)[C@H](Cc2c[nH]cn2)NC(=O)[C@H](C(C)C)NC(=O)[C@H](CC(C)C)NC(=O)[C@H](CCN)NC(=O)[C@@H](CC(C)C)NC(=O)[C@H](C)N(C)C(=O)[C@H](C(C)C)NC(=O)[C@H](Cc2ccc(-c3ccccc3)cc2)NC1=O [Example 2037] ({CH2CO}-FY(Carboxymethyl)DWL[Bip]V[NMeA][dL][Dab]LVHC[dDap][AEEA][Aun]-OH; thioether N-14) | 0.029
